Measurements reported in ChEMBL document CHEMBL3045372, “Biososteric Replacement in the Design and Synthesis of Ligands for Nicotinic Acetylcholine Receptors” (Med Chem Res, 2005).

Experiments:
[1] = molecular target: T1, Neuronal acetylcholine receptor; alpha4/beta2 (Homo sapiens, UniProt P17787+P43681); assay: Displacement of [3H]nicotine from Homo sapiens (human) alpha4beta2 nicotinic acetylcholine receptor expressed in Homo sapiens (human) SH-EP1 cells after 2.5 min by scintillation counting; type: cell-based
[2] = molecular target: Neuronal acetylcholine receptor; alpha4/beta2 (Rattus norvegicus) (UniProt P09483+P12390); assay: Displacement of [3H]cytisine from alpha4beta2 nicotinic acetylcholine receptor in Rattus norvegicus (rat) cerebral cortex at 10 uM after 75 min by scintillation counting; type: tissue-based
[3] = molecular target: T1, Neuronal acetylcholine receptor; alpha4/beta2; assay: Inhibition of alpha4beta2 nicotinic acetylcholine receptor (unknown origin); type: protein-complex assay

T1 sequence (P17787 whole entry): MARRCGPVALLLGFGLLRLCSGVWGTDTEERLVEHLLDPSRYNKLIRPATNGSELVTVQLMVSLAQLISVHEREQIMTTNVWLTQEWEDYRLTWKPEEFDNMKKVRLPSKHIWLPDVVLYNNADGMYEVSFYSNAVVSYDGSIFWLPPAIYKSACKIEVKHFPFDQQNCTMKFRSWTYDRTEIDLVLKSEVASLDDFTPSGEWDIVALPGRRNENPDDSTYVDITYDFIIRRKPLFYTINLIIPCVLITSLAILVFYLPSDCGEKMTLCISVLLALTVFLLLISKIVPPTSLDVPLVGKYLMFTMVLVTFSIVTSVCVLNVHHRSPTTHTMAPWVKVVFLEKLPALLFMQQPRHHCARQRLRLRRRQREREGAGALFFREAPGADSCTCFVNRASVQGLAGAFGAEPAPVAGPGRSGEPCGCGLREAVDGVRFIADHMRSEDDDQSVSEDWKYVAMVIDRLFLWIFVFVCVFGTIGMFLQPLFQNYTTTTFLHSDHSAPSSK
T1 sequence (P43681 whole entry): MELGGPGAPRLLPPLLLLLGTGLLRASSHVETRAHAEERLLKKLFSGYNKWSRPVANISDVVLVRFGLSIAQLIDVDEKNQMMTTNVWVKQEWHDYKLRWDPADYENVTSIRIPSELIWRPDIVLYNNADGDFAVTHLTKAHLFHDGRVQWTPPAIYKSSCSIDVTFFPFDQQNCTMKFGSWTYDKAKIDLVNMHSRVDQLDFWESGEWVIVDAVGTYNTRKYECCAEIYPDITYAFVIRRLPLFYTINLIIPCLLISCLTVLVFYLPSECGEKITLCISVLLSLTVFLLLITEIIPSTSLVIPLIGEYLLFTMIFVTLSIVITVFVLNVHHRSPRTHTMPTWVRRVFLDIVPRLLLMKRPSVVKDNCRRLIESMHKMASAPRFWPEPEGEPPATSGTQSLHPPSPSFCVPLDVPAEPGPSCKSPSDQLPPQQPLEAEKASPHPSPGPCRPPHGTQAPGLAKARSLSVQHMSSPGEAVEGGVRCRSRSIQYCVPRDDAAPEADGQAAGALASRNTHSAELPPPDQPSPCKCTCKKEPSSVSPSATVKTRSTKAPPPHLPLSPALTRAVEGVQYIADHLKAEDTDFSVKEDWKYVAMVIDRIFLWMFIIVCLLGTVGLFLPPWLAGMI

SMILES	Ki ([1]; read-out: Ki)	inhibition [2]	also measured
CN(C)CCOc1cccc(O)c1	360 nM	–	–
c1ccc(N(CCOc2cccnc2)c2ccccc2)cc1	–	0%	–
Oc1cccc(OC[C@@H]2CC3CCN2CC3)c1	–	–	Ki [3]: 4 nM
Oc1cccc(OCCN(c2ccccc2)c2ccccc2)c1	–	0%	–
CN(C)CCOc1cccc([N+](=O)[O-])c1	3390 nM	33%	–
Cc1c(O)cccc1OCCN(c1ccccc1)c1ccccc1	–	0%	–
O=[N+]([O-])c1cccc(OCCN(c2ccccc2)c2ccccc2)c1	–	0%	–
CC(C)N(CCOc1cccc(O)c1)C(C)C	–	0%	–
CC(C)N(CCOc1cccc([N+](=O)[O-])c1)C(C)C	–	0%	–
CN(C)CCOc1cccnc1	300 nM	95%	–
CN(C)CCOc1cncc(Cl)c1	450 nM	84%	–
CC(C)N(CCOc1cccnc1)C(C)C	11200 nM	64%	inhibition [1]: Dose-dependent effect
CCCN(CCC)CCOc1cccc([N+](=O)[O-])c1	–	21%	Ki ([1]; sh-ep1): Not Active
O=[N+]([O-])c1cccc(OC[C@@H]2CC3CCN2CC3)c1	–	–	Ki [3]: 734 nM
